pIC50: −log10 of the molar value. In brackets after ≈: the same amount, converted by molar mass.
Legend:
Candida tropicalis = test: Inhibition of chitin synthase extracted from Candida tropicalis ATCC 750 using UDP-GlcNAc as substrate assessed as inhibition rate at 300 ug/ml by TMB based microplate analyzer relative to control; details: dose 300.0 µg/ml
[1] = Inhibition of chitin synthase extracted from Candida tropicalis ATCC 750 using UDP-GlcNAc as substrate assessed as inhibition rate by TMB based microplate analyzer relative to control
Candida albicans [2] = test: Antifungal activity against Candida albicans ATCC 76615 assessed as inhibition of growth incubated for 24 hrs by two-fold serial dilution method; type: functional
Aspergillus flavus [3] = test: Antifungal activity against Aspergillus flavus ATCC 16870 assessed as inhibition of growth incubated for 24 hrs by two-fold serial dilution method; type: functional
Aspergillus fumigatus [4] = test: Antifungal activity against Aspergillus fumigatus GIMCC 3.19 assessed as inhibition of growth incubated for 24 hrs by two-fold serial dilution method; type: functional
Cryptococcus neoformans [5] = test: Antifungal activity against Cryptococcus neoformans ATCC 32719 assessed as inhibition of growth incubated for 24 hrs by two-fold serial dilution method; type: functional
Candida albicans [6] = test: Antifungal activity against drug-resistant Candida albicans ATCC 76615 assessed as inhibition of cell wall synthesis in presence of sorbitol incubated for 24 hrs; type: functional
Aspergillus fumigatus [7] = test: Antifungal activity against drug-resistant Aspergillus fumigatus GIMCC 3.19 assessed as inhibition of cell wall synthesis in presence of sorbitol incubated for 24 hrs; type: functional
Cryptococcus neoformans [8] = test: Antifungal activity against drug-resistant Cryptococcus neoformans ATCC 32719 assessed as inhibition of cell wall synthesis in presence of sorbitol incubated for 24 hrs; type: functional
Candida albicans [9] = test: Antifungal activity against fluconazole-resistant Candida albicans ATCC 76615 assessed as inhibition of fungal growth incubated for 24 to 72 hrs; type: functional; details: time 24-72 hrs
Aspergillus flavus [10] = test: Antifungal activity against fluconazole-resistant Aspergillus flavus ATCC 16870 assessed as inhibition of fungal growth incubated for 24 to 72 hrs; type: functional; details: time 24-72 hrs
Aspergillus fumigatus [11] = test: Antifungal activity against fluconazole-resistant Aspergillus fumigatus GIMCC 3.19 assessed as inhibition of fungal growth incubated for 24 to 72 hrs; type: functional; details: time 24-72 hrs
Cryptococcus neoformans [12] = test: Antifungal activity against fluconazole-resistant Cryptococcus neoformans ATCC 32719 assessed as inhibition of fungal growth incubated for 24 to 72 hrs; type: functional; details: time 24-72 hrs
Candida albicans [13] = test: Antifungal activity against micafungin-resistant Candida albicans ATCC 76615 assessed as inhibition of fungal growth incubated for 24 to 72 hrs; type: functional; details: time 24-72 hrs
Candida albicans [14] = test: Antifungal activity against Candida albicans ATCC 76615 incubated for 24 hrs by half broth dilution based checkerboard method; type: functional
Aspergillus flavus [15] = test: Antifungal activity against Aspergillus flavus ATCC 16870 incubated for 24 hrs by half broth dilution based checkerboard method; type: functional
Aspergillus fumigatus [16] = test: Antifungal activity against Aspergillus fumigatus GIMCC 3.19 incubated for 24 hrs by half broth dilution based checkerboard method; type: functional
Cryptococcus neoformans [17] = test: Antifungal activity against Cryptococcus neoformans ATCC 32719 incubated for 24 hrs by half broth dilution based checkerboard method; type: functional
Candida albicans [18] = test: Antifungal activity against Candida albicans ATCC 76615 assessed as fluconazole MIC incubated for 24 hrs in presence of fluconazole by half broth dilution based checkerboard method; type: functional
Aspergillus flavus [19] = test: Antifungal activity against Aspergillus flavus ATCC 16870 assessed as fluconazole MIC incubated for 24 hrs in presence of fluconazole by half broth dilution based checkerboard method; type: functional
Aspergillus fumigatus [20] = test: Antifungal activity against Aspergillus fumigatus GIMCC 3.19 assessed as fluconazole MIC incubated for 24 hrs in presence of fluconazole by half broth dilution based checkerboard method; type: functional
Cryptococcus neoformans [21] = test: Antifungal activity against Cryptococcus neoformans ATCC 32719 assessed as fluconazole MIC incubated for 24 hrs in presence of fluconazole by half broth dilution based checkerboard method; type: functional
Aspergillus fumigatus [22] = test: Synergistic antifungal activity against Aspergillus fumigatus GIMCC 3.19 assessed as fractional inhibitory concentration index in presence of fluconazole incubated for 24 hrs by half broth dilution based checkerboard method; type: functional
Candida albicans [23] = test: Synergistic antifungal activity against Candida albicans ATCC 76615 assessed as fractional inhibitory concentration index in presence of fluconazole incubated for 24 hrs by half broth dilution based checkerboard method; type: functional
Aspergillus flavus [24] = test: Synergistic antifungal activity against Aspergillus flavus ATCC 16870 assessed as fractional inhibitory concentration index in presence of fluconazole incubated for 24 hrs by half broth dilution based checkerboard method; type: functional
Cryptococcus neoformans [25] = test: Synergistic antifungal activity against Cryptococcus neoformans ATCC 32719 assessed as fractional inhibitory concentration index in presence of fluconazole incubated for 24 hrs by half broth dilution based checkerboard method; type: functional
Candida albicans [26] = test: Antifungal activity against Candida albicans ATCC 76615 assessed as Polyoxin B MIC incubated for 24 hrs in presence of fluconazole by half broth dilution based checkerboard method; type: functional
Aspergillus flavus [27] = test: Antifungal activity against Aspergillus flavus ATCC 16870 assessed as Polyoxin B MIC incubated for 24 hrs in presence of fluconazole by half broth dilution based checkerboard method; type: functional
Aspergillus fumigatus [28] = test: Antifungal activity against Aspergillus fumigatus GIMCC 3.19 assessed as Polyoxin B MIC incubated for 24 hrs in presence of fluconazole by half broth dilution based checkerboard method; type: functional
Cryptococcus neoformans [29] = test: Antifungal activity against Cryptococcus neoformans ATCC 32719 assessed as Polyoxin B MIC incubated for 24 hrs in presence of fluconazole by half broth dilution based checkerboard method; type: functional
Candida albicans [30] = test: Synergistic antifungal activity against Candida albicans ATCC 76615 assessed as fractional inhibitory concentration index in presence of Polyoxin B incubated for 24 hrs by half broth dilution based checkerboard method; type: functional
Aspergillus flavus [31] = test: Synergistic antifungal activity against Aspergillus flavus ATCC 16870 assessed as fractional inhibitory concentration index in presence of Polyoxin B incubated for 24 hrs by half broth dilution based checkerboard method; type: functional
Aspergillus fumigatus [32] = test: Synergistic antifungal activity against Aspergillus fumigatus GIMCC 3.19 assessed as fractional inhibitory concentration index in presence of Polyoxin B incubated for 24 hrs by half broth dilution based checkerboard method; type: functional
Cryptococcus neoformans [33] = test: Synergistic antifungal activity against Cryptococcus neoformans ATCC 32719 assessed as fractional inhibitory concentration index in presence of Polyoxin B incubated for 24 hrs by half broth dilution based checkerboard method; type: functional
Aspergillus flavus [34] = test: Antifungal activity against drug-resistant Aspergillus flavus ATCC 16870 assessed as inhibition of cell wall synthesis in presence of sorbitol incubated for 24 hrs; type: functional

Compound | inhibition (Candida tropicalis) [%] | pIC50 [1] | MIC (Candida albicans [2]) [µg/mL] | MIC (Aspergillus flavus [3]) [µg/mL] | MIC (Aspergillus fumigatus [4]) [µg/mL] | MIC (Cryptococcus neoformans [5]) [µg/mL] | MIC (Candida albicans [6]) [µg/mL] | MIC (Aspergillus fumigatus [7]) [µg/mL] | MIC (Cryptococcus neoformans [8]) [µg/mL] | MIC (Candida albicans [9]) [µg/mL] | MIC (Aspergillus flavus [10]) [µg/mL] | MIC (Aspergillus fumigatus [11]) [µg/mL] | MIC (Cryptococcus neoformans [12]) [µg/mL] | MIC (Candida albicans [13]) [µg/mL] | MIC (Candida albicans [14]) [µg/mL] | MIC (Aspergillus flavus [15]) [µg/mL] | MIC (Aspergillus fumigatus [16]) [µg/mL] | MIC (Cryptococcus neoformans [17]) [µg/mL] | MIC (Candida albicans [18]) [µg/mL] | MIC (Aspergillus flavus [19]) [µg/mL] | also measured
O=C(/C=C/C(=O)Nc1ccc2c(c1)NC(=O)C1(CCNC1=O)C2)Nc1ccc(Br)cc1 (racemic) | 72.7 | 3.75 | 16 (≈ 33.1 µM) | 16 (≈ 33.1 µM) | 32 (≈ 66.2 µM) | 16 (≈ 33.1 µM) | 128 | 256 | 256 | 64 (≈ 132 µM) | 64 (≈ 132 µM) | 64 (≈ 132 µM) | 32 (≈ 66.2 µM) | 32 (≈ 66.2 µM) | 4 | 8 | 8 | 4 | 4 | 4 | MIC (Aspergillus fumigatus [20]): 2 µg/mL; MIC (Cryptococcus neoformans [21]): 4 µg/mL; fractional inhibitory concentration index (FICI) (Aspergillus fumigatus [22]): 0.75; fractional inhibitory concentration index (FICI) (Candida albicans [23]): 0.75; fractional inhibitory concentration index (FICI) (Aspergillus flavus [24]): 1.5; fractional inhibitory concentration index (FICI) (Cryptococcus neoformans [25]): 1; MIC (Candida albicans [26]): 8 µg/mL; MIC (Aspergillus flavus [27]): 8 µg/mL; MIC (Aspergillus fumigatus [28]): 16 µg/mL; MIC (Cryptococcus neoformans [29]): 4 µg/mL; fractional inhibitory concentration index (FICI) (Candida albicans [30]): 0.75; fractional inhibitory concentration index (FICI) (Aspergillus flavus [31]): 1.5; fractional inhibitory concentration index (FICI) (Aspergillus fumigatus [32]): 0.75; fractional inhibitory concentration index (FICI) (Cryptococcus neoformans [33]): 1
O=C(CN1CCC(C(=O)Nc2ccc(Br)cc2)CC1)Nc1ccc2c(c1)NC(=O)C1(CCNC1=O)C2 (racemic) | 63 | 3.94 | 16 (≈ 28.9 µM) | 32 (≈ 57.7 µM) | 16 (≈ 28.9 µM) | 8 (≈ 14.4 µM) | 256 | 512 | 128 | 32 (≈ 57.7 µM) | 64 (≈ 115 µM) | 64 (≈ 115 µM) | 32 (≈ 57.7 µM) | 32 (≈ 57.7 µM) | 16 | 32 | 16 | 8 | 4 | 4 | MIC (Aspergillus flavus [34]): 256 µg/mL; MIC (Aspergillus fumigatus [20]): 2 µg/mL; MIC (Cryptococcus neoformans [21]): 2 µg/mL; fractional inhibitory concentration index (FICI) (Aspergillus fumigatus [22]): 1; fractional inhibitory concentration index (FICI) (Candida albicans [23]): 1; fractional inhibitory concentration index (FICI) (Aspergillus flavus [24]): 1.25; fractional inhibitory concentration index (FICI) (Cryptococcus neoformans [25]): 0.75; MIC (Candida albicans [26]): 16 µg/mL; MIC (Aspergillus flavus [27]): 32 µg/mL; MIC (Aspergillus fumigatus [28]): 16 µg/mL; MIC (Cryptococcus neoformans [29]): 8 µg/mL; fractional inhibitory concentration index (FICI) (Candida albicans [30]): 1; fractional inhibitory concentration index (FICI) (Aspergillus flavus [31]): 0.5; fractional inhibitory concentration index (FICI) (Aspergillus fumigatus [32]): 1; fractional inhibitory concentration index (FICI) (Cryptococcus neoformans [33]): 1.5
O=C(/C=C/C(=O)Nc1cccc2ccccc12)Nc1ccc2c(c1)NC(=O)C1(CCNC1=O)C2 (racemic) | 79.5 | 3.88 | 16 (≈ 35.2 µM) | 8 (≈ 17.6 µM) | 8 (≈ 17.6 µM) | 8 (≈ 17.6 µM) | 256 | 128 | 128 | 32 (≈ 70.4 µM) | 32 (≈ 70.4 µM) | 64 (≈ 141 µM) | 32 (≈ 70.4 µM) | 32 (≈ 70.4 µM) | 4 | 2 | 2 | 2 | 8 | 2 | MIC (Aspergillus flavus [34]): 64 µg/mL; MIC (Aspergillus fumigatus [20]): 2 µg/mL; MIC (Cryptococcus neoformans [21]): 2 µg/mL; fractional inhibitory concentration index (FICI) (Aspergillus fumigatus [22]): 1; fractional inhibitory concentration index (FICI) (Candida albicans [23]): 1.125; fractional inhibitory concentration index (FICI) (Aspergillus flavus [24]): 0.75; fractional inhibitory concentration index (FICI) (Cryptococcus neoformans [25]): 0.5; MIC (Candida albicans [26]): 8 µg/mL; MIC (Aspergillus flavus [27]): 2 µg/mL; MIC (Aspergillus fumigatus [28]): 2 µg/mL; MIC (Cryptococcus neoformans [29]): 2 µg/mL; fractional inhibitory concentration index (FICI) (Candida albicans [30]): 1.25; fractional inhibitory concentration index (FICI) (Aspergillus flavus [31]): 0.75; fractional inhibitory concentration index (FICI) (Aspergillus fumigatus [32]): 1; fractional inhibitory concentration index (FICI) (Cryptococcus neoformans [33]): 0.5
Cc1ccc(NC(=O)/C=C/C(=O)Nc2ccc3c(c2)NC(=O)C2(CCNC2=O)C3)cc1 (racemic) | 71.4 | 3.70 | 16 (≈ 38.2 µM) | 8 (≈ 19.1 µM) | 16 (≈ 38.2 µM) | 32 (≈ 76.5 µM) | 128 | 128 | 256 | 64 (≈ 153 µM) | 32 (≈ 76.5 µM) | 32 (≈ 76.5 µM) | 64 (≈ 153 µM) | 64 (≈ 153 µM) | 8 | 4 | 8 | 16 | 4 | 4 | MIC (Aspergillus flavus [34]): 64 µg/mL; MIC (Aspergillus fumigatus [20]): 4 µg/mL; MIC (Cryptococcus neoformans [21]): 8 µg/mL; fractional inhibitory concentration index (FICI) (Aspergillus fumigatus [22]): 1.5; fractional inhibitory concentration index (FICI) (Candida albicans [23]): 1; fractional inhibitory concentration index (FICI) (Aspergillus flavus [24]): 2; fractional inhibitory concentration index (FICI) (Cryptococcus neoformans [25]): 1.5; MIC (Candida albicans [26]): 8 µg/mL; MIC (Aspergillus flavus [27]): 4 µg/mL; MIC (Aspergillus fumigatus [28]): 16 µg/mL; MIC (Cryptococcus neoformans [29]): 16 µg/mL; fractional inhibitory concentration index (FICI) (Candida albicans [30]): 1; fractional inhibitory concentration index (FICI) (Aspergillus flavus [31]): 2; fractional inhibitory concentration index (FICI) (Aspergillus fumigatus [32]): 1.5; fractional inhibitory concentration index (FICI) (Cryptococcus neoformans [33]): 1.5

Source: ChEMBL document CHEMBL6127079, “Design and synthesis of spiro[pyrrolidine-3,3'-quinoline]-2,2'-dione derivatives as novel antifungal agents targeting chitin synthase” (Eur J Med Chem, 2024)
